Experimental data as given in patent publication EP1308501A1, “Fermented beverages comprising yeast transformed by the ATF2 gene” (Pernod-Ricard, priority 2001, dated 2003).
Where two headings read alike, the source gives them in different places.

What was measured:
production d'esters = settings: six mois après la mise en bouteille; cited from earlier work
Atf2p = biological target: T1, Atf2p (Saccharomyces cerevisiae, UniProt P53296); settings: cited from earlier work
T1 sequence (P53296 1-535): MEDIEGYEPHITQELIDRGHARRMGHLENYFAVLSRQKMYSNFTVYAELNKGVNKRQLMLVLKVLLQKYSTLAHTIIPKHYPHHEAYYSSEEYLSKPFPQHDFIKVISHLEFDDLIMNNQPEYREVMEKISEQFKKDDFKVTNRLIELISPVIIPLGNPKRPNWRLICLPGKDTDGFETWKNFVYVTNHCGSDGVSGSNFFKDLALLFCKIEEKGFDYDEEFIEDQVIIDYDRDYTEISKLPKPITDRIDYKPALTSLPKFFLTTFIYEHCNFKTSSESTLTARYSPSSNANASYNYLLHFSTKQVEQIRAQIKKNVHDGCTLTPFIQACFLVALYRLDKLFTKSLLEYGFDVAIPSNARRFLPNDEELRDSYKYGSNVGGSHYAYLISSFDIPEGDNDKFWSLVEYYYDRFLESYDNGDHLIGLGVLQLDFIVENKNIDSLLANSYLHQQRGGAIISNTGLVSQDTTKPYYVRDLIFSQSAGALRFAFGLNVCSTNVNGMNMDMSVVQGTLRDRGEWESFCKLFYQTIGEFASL

[1] = system: alcool acétyle transférase; settings: partially purified enzyme, cited from earlier work
YRC1001/pRC124 = test: Bioconversion of alcohols added to malt medium by a strain overexpressing ATF2; format: cell-based, Saccharomyces cerevisiae
Procedure: Transformation dans la souche […], sous contrôle du promoteur proTEF1, le gène ATF2 (pRC124). Les précultures sont réalisées dans du milieu liquide SC20 (Sherman, 1991) dépourvu d'uracile et selon la même procédure que dans l'exemple 3. Les cultures sont ensemencées comme décrit précédemment dans du milieu malt, cette fois non glucosé. Ce dernier est supplémenté en leucine, lysine et histidine. A ce milieu malt, on ajoute juste avant ensemencement des alcools à raison de 100 μg/ml. Après fermentation pendant 98 heures, on analyse -comme décrit précédemment- les alcools et leurs produits dérivés (esters […] correspondant à l'alcool et son ester éthylé). La capacité de bioconversion est ensuite exprimée par le rapport « ester acétylé de l'alcool ajouté »/« somme des alcools et produits dérivés ». Cette valeur donne une indication […] au milieu extérieur par la souche de levure transformée. Les résultats sont […] Tableau 4.

[2] = alcohol added at 100 µg/ml, malt non glucosé, 98 heures, ratio ester acétylé de l'alcool ajouté / somme des alcools et produits dérivés

CC(=O)OCCC(C)C [acétate d'isoamyle]
réduction des esters acétylés (production d'esters): ~2 fois

CC(=O)SCCNC(=O)CCNC(=O)[C@H](O)C(C)(C)COP(=O)(O)OP(=O)(O)OC[C@H]1O[C@@H](n2cnc3c(N)ncnc32)[C@H](O)[C@@H]1OP(=O)(O)O [acétyle-CoA]
Km (Atf2p): 1000 nM | Km ([1]; co-factor): 0.025 to 0.04 mM

CC(=O)[C@H]1CC[C@H]2[C@@H]3CC=C4C[C@@H](O)CC[C@]4(C)[C@H]3CC[C@]12C [pregnénolone]
Km (Atf2p): 500 nM

OCc1ccccc1 [benzylalcool]
Bioconversion par YRC1001/pRC124 (YRC1001/pRC124; [2]): 0,163

CC(=O)OCCc1ccccc1 [acétatede 2-phényléthyle]
réduction des esters acétylés (production d'esters): ~2 fois

CCCCO [n-butanol]
Bioconversion par YRC1001/pRC124 (YRC1001/pRC124): 0,021

CC(C)CCO [isoamylalcool]
Bioconversion par YRC1001/pRC124 (YRC1001/pRC124; [2]): 0,045 | Km ([1]; acceptor): 25 mM
